Test results reported in ChEMBL document CHEMBL5512658, “Development of benzimidazole-based compounds as novel capsid assembly modulators for the treatment of HBV infection” (Eur J Med Chem, 2024).
Activity calls are given as the source filed them. The calls are words filed in the database; no cut-off is given here.

Experiments:
Hepatitis B virus [1] = assay: Antiviral activity against HBV infected in human HepAD38 cells assessed as inhibition of viral replication by Southern blot analysis; assay type: functional, organism-based
Hepatitis B virus [2] = assay: Antiviral activity against HBV infected in human HepAD38 cells assessed as inhibition of viral replication incubated for 6 days by qPCR analysis; assay type: functional, organism-based; settings: HePAD38, 144 h
Hepatitis B virus [3] = assay: Antiviral activity against HBV infected in human HePAD38 cells assessed as inhibition of HBV capsid assembly by measuring secretion of particles containing HBV DNA at 5 uM incubated for 7 days by Southern blot analysis; assay type: functional, organism-based; settings: time 7.0 day
Hepatitis B virus [4] = assay: Antiviral activity against HBV infected in human HePAD38 cells assessed as reduction in intracellular core HBV DNA level media replaced for every 2 to 3 days incubated for 7 days by Western blot analysis; assay type: functional, organism-based
[5] = system: Hepatitis B virus core protein; assay: Selectivity index, ratio of CC50 for human HepG2 cells to IC50 for Hepatitis B virus core protein expressed in HEK293T cells; assay type: toxicity, cell-based; settings: read-out: Ratio CC50/IC50
[6] = Toxicity in BALB/c mouse at 100 mg/kg, po administered twice daily for 14 days; assay type: organism-based; settings: in vivo, 336 h, time 14 day
Core antigen = Core antigen (Hepatitis B virus, UniProt Q03732); assay: Inhibition of Hepatitis B virus core protein expressed in HBC cells derived from HEK293T cells assessed as reduction in HBcAg level incubated for 6 hrs by Nano-glo luciferase assay; assay type: cell-based; settings: read-out: IC50
Core antigen, sequence (Q03732 whole entry): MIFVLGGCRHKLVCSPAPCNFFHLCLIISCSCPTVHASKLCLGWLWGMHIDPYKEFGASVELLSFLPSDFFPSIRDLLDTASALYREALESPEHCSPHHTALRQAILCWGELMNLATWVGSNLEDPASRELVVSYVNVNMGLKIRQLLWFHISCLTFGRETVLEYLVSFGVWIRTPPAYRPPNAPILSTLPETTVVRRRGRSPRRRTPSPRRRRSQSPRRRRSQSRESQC

Hepatitis B virus [7] = assay: Antiviral activity against HBV infected in BALB/c mouse hydrodynamic injection model hydrodynamically injected with replication-competent HBV DNA plasmid assessed as reduction in HBV DNA copy numbers in plasma at 100 mg/kg, po administered twice daily for 14 days; assay type: functional, organism-based; settings: time 14.0 day
Hepatitis B virus [8] = assay: Antiviral activity against HBV infected in human HePAD38 cells assessed as reduction HBV capsid level at 5 uM media replaced for every 2 to 3 days incubated for 7 days by Western blot analysis; assay type: functional, organism-based; settings: time 7.0 day
Hepatitis B virus [9] = assay: Antiviral activity against HBV infected in BALB/c mouse hydrodynamic injection model hydrodynamically injected with replication-competent HBV DNA plasmid assessed as decrease in HBsAG level in mouse serum at 100 mg/kg, po administered twice daily for 7 days by ELISA method; assay type: functional, organism-based; settings: time 7.0 day
Hepatitis B virus [10] = assay: Antiviral activity against HBV infected in human HePAD38 cells assessed as decrease in HBV DNA level at 2.5 to 20 uM by q-PCR analysis; assay type: functional, organism-based; settings: dose 2.5-20 µM
HepG2 = assay: Cytotoxicity against human HepG2 cells measured after 3 days by resazurin staining based analysis; assay type: functional; settings: HepG2, 72 h, time 3 day

Molecule CCOC(=O)C1=C(CN2CCOCC2)NC(c2nccs2)=N[C@H]1c1ccc(F)cc1Br has an EC50 (Hepatitis B virus [1]) of 62.2 nM.
COc1ccccc1/C(Br)=C(/NC(=O)c1ccc([N+](=O)[O-])cc1)C(=O)N1CCCCC1 gave an EC50 (Hepatitis B virus [2]) of 200 nM.
For COc1ccc(Sc2nc3ccccc3n2CCO)cc1, the Activity (Hepatitis B virus [3]) was “Active”, the EC50 (Hepatitis B virus [4]) was 2240 nM and the selectivity ratio [5] was 165. The Activity [6] was “Non-Toxic”, the IC50 (Core antigen) was 510 nM and the Activity (Hepatitis B virus [7]) was “Active”. The Activity (Hepatitis B virus [8]) was “Active”, the Activity (Hepatitis B virus [9]) was “Active” and the Activity (Hepatitis B virus [10]) was “Active”. The CC50 (HepG2) was 84300 nM.
